Data on two compounds can be found in US7741032B2, “Genotyping assay to predict gamma glutamyl hydrolase (GGH) activity” (St. Jude Children's Research Hospital, Inc., priority 2004, dated 2010).

Experiment [1] addresses T1, T127I variant GGH (Homo sapiens, UniProt Q92820, T151I).
T1 construct: A cDNA encoding the 294 amino acids of human GGH (with out leading peptide) was cloned by RT-PCR; made in house; host or cells: E. coli BL21(DE3)pLysS
T1 sequence (Q92820 25-318 T151I): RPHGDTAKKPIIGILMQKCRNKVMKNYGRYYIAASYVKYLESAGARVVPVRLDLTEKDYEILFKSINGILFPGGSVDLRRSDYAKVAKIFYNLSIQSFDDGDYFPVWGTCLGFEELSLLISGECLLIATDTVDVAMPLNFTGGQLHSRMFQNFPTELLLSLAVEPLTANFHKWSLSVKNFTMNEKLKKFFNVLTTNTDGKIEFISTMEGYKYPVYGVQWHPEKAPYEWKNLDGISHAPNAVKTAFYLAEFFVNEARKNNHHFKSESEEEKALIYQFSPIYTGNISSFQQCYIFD
Briefly: Enzyme kinetic analysis of heterologously expressed wild-type and T127I variant GGH with MTX-PG as substrate. Format: biochemical. Particulars: recombinant GGH, substrate as labelled; for catalytic efficiency (Vmax/Km) reduction of T127I variant: versus wild-type, p=0.003. The procedure: Wild-type human GGH cloning and site-directed mutagenesis: A cDNA encoding the 294 amino acids of human GGH (with out leading peptide) was cloned by RT-PCR and TA cloning (Invitrogen, Carlsbad, Calif.) using RNA isolated from human CEM cells. Plasmid DNA was purified using the mini prep kit (Qiagen, Santa Clarita, Calif.). After sequencing, the selected cDNA clone was subcloned into the pET28b vector (Novagen, Madison, Wis.) from Nde1 and BamH1 sites, and an N-terminal HisTag was added. This HisTag enabled the purification of large quantities of protein and had no effect on GGH activity (Chave, K. J. et al., 2000, id). Site-directed mutagenesis was performed with the QuickChange II kit (Stratagene, La Jolla, Calif.) according to the manufacturer's protocol. The primers used for mutagenesis of wild-type human GGH to T127I were
Expression and characterization of T127I variant GGH: Plasmids carrying wild-type and T127I variant GGH were used to transform E. coli strain BL21(DE3)pLysS competent cells (Novagen, Madison, Wis.). The E. coli cells were grown in LB medium containing 30 μg/ml kanamycin and 34 μg/ml chloramphenicol at 37° C. to OD600 about 0.6 and expression was induced with 1 mM isopropyl-β-D-thiogalactoside for 3 h. Cells were harvested by centrifugation at 5,000 g for 5 min at 4° C., and were kept as a frozen pellet at −70° C. Target proteins were extracted using BugBuster His-Bind Purification kit (Novagen, Madison, Wis.), followed by gel filtration chromatography at 4° C. on a HiLoad 26/60 S200 Superdex column (Amersham Pharmacia Biotech, Sweden) in 0.05 M sodium acetate buffer, pH5.5, containing 0.05 M 2-mercaptoethanol, 1 M NaCl, and 1 mM EDTA. Fractions containing target proteins were pooled and proteins were concentrated using Viva Cell 70 ml Concentrator, followed by Viva Cpin 2 ml Concentrator (Vivascience, Edgewood, NY).
Wild-type and T127I variant forms of human GGH were separated using NuPAGE™ 4-12% Bis-Tris Gel (Invitrogen, Carlsbad, Calif.). Protein bands were visualized by silver staining (Amersham Pharmacia Biotech, Sweden). Western blot was carried out as described (Tai, H. L. et al., “Thiopurine S-methyltransferase deficiency: two nucleotide transitions define the most prevalent mutant allele associated with loss of catalytic activity in Caucasians” Am J Hum Genet 58:694-702 (1996)). Polyclonal anti-human GGH rabbit antibody was kindly provided by Drs Thomas J. Ryan and […]. GGH activity was measured using MTEN buffer with 25 mM DTT. The assay mixture without substrate was incubated at 37° C. for 20 min, followed by incubation with substrate at 37° C. for 5 min and boiling for 5 min. In each experiment, wild-type and variant GGH were analyzed in parallel using varying concentrations of MTX-PG5 or MTX-PG2 as substrate. The substrate and the reaction products were analyzed by HPLC, and GGH activity was calculated by total amount of product formed per min per μg protein. Two independent experiments were carried on with each substrate. Nonlinear least-squares regression was used to estimate Km and Vmax by fitting a Michaels-Menten model as described earlier (Panetta, J. C. et al., id).

In experiment [2] the target is T2, GGH (Homo sapiens, UniProt Q92820, T151I).
T2 sequence (Q92820 25-318 T151I): T1 sequence (Q92820 25-318 T151I)
The conditions noted are these: MTXPG2 as the substrate; reported by Chave et al. 2003; cited from earlier work.

Take `CN(Cc1cnc2nc(N)nc(N)c2n1)c1ccc(C(=O)N[C@@H](CCC(=O)N[C@@H](CCC(=O)O)C(=O)O)C(=O)O)cc1` [MTX-PG2]: in experiment [1], the “difference in Km between the wild-type and T127I variant” value was “not a significant difference”; the “difference in Vmax between the wild-type and T127I variant” value was “not a significant difference”; the “difference in catalytic efficiency between the wild-type and T127I variant” value is listed as “not a significant difference”. For the same compound, in experiment [2], the “effect of T127I mutation on GGH activity” value is “did not change GGH activity”.

Consider `CN(Cc1cnc2nc(N)nc(N)c2n1)c1ccc(C(=O)N[C@@H](CCC(=O)N[C@@H](CCC(=O)N[C@@H](CCC(=O)N[C@@H](CCC(=O)N[C@@H](CCC(=O)O)C(=O)O)C(=O)O)C(=O)O)C(=O)O)C(=O)O)cc1` [MTX-PG5], for which, in experiment [1], the “difference in Vmax between the wild-type and T127I variant” value was “not a significant difference”. Moreover, the “Km increase of T127I variant compared to wild-type GGH” value in experiment [1] (p=0.021) worked out at 2.7 fold. For the same compound, the “catalytic efficiency (Vmax/Km) reduction of T127I variant” value in experiment [1] is 67%; in experiment [1] (listed as MTXPG5), 67.5%.
